{"source": "patent US20090208616A1", "about": "“INTERVENTION TECHNIQUES FOR REDUCING CARCASS CONTAMINATION” (priority 2000, published 2009)", "origin": "cited, not measured here", "tested_on": "Giardia Cysts", "note": "Read-outs that look alike come from different tables or passages of the source.", "data": [{"smiles": "NCl", "note": "[Chloramine]", "values": [{"measurement": "CT value for 0.5-log inactivation of Giardia cysts by chloramine", "setting": "pH range 6 to 9, 5 ° C.", "result": 365, "unit": "mg/L-min"}, {"measurement": "CT value for 1-log inactivation of Giardia cysts by chloramine", "setting": "pH range 6 to 9, 5 ° C.", "result": 735, "unit": "mg/L-min"}, {"measurement": "CT value for 1.5-log inactivation of Giardia cysts by chloramine", "setting": "pH range 6 to 9, 5 ° C.", "result": 1100, "unit": "mg/L-min"}, {"measurement": "CT value for 2-log inactivation of Giardia cysts by chloramine", "setting": "pH range 6 to 9, 5 ° C.", "result": 1470, "unit": "mg/L-min"}, {"measurement": "CT value for 2.5-log inactivation of Giardia cysts by chloramine", "setting": "pH range 6 to 9, 5 ° C.", "result": 1830, "unit": "mg/L-min"}, {"measurement": "CT value for 3-log inactivation of Giardia cysts by chloramine", "setting": "pH range 6 to 9, 5 ° C.", "result": 2200, "unit": "mg/L-min"}, {"measurement": "CT value for 0.5-log inactivation of Giardia cysts by chloramine", "setting": "pH range 6 to 9, 10 ° C.", "result": 310, "unit": "mg/L-min"}, {"measurement": "CT value for 1-log inactivation of Giardia cysts by chloramine", "setting": "pH range 6 to 9, 10 ° C.", "result": 615, "unit": "mg/L-min"}, {"measurement": "CT value for 1.5-log inactivation of Giardia cysts by chloramine", "setting": "pH range 6 to 9, 10 ° C.", "result": 930, "unit": "mg/L-min"}, {"measurement": "CT value for 2-log inactivation of Giardia cysts by chloramine", "setting": "pH range 6 to 9, 10 ° C.", "result": 1230, "unit": "mg/L-min"}, {"measurement": "CT value for 2.5-log inactivation of Giardia cysts by chloramine", "setting": "pH range 6 to 9, 10 ° C.", "result": 1540, "unit": "mg/L-min"}, {"measurement": "CT value for 3-log inactivation of Giardia cysts by chloramine", "setting": "pH range 6 to 9, 10 ° C.", "result": 1850, "unit": "mg/L-min"}, {"measurement": "CT value for 0.5-log inactivation of Giardia cysts by chloramine", "setting": "pH range 6 to 9, 15 ° C.", "result": 250, "unit": "mg/L-min"}, {"measurement": "CT value for 1-log inactivation of Giardia cysts by chloramine", "setting": "pH range 6 to 9, 15 ° C.", "result": 500, "unit": "mg/L-min"}, {"measurement": "CT value for 1.5-log inactivation of Giardia cysts by chloramine", "setting": "pH range 6 to 9, 15 ° C.", "result": 750, "unit": "mg/L-min"}, {"measurement": "CT value for 2-log inactivation of Giardia cysts by chloramine", "setting": "pH range 6 to 9, 15 ° C.", "result": 1000, "unit": "mg/L-min"}, {"measurement": "CT value for 2.5-log inactivation of Giardia cysts by chloramine", "setting": "pH range 6 to 9, 15 ° C.", "result": 1250, "unit": "mg/L-min"}, {"measurement": "CT value for 3-log inactivation of Giardia cysts by chloramine", "setting": "pH range 6 to 9, 15 ° C.", "result": 1500, "unit": "mg/L-min"}, {"measurement": "CT value for 0.5-log inactivation of Giardia cysts by chloramine", "setting": "pH range 6 to 9, 20 ° C.", "result": 185, "unit": "mg/L-min"}, {"measurement": "CT value for 1-log inactivation of Giardia cysts by chloramine", "setting": "pH range 6 to 9, 20 ° C.", "result": 370, "unit": "mg/L-min"}, {"measurement": "CT value for 1.5-log inactivation of Giardia cysts by chloramine", "setting": "pH range 6 to 9, 20 ° C.", "result": 550, "unit": "mg/L-min"}, {"measurement": "CT value for 2-log inactivation of Giardia cysts by chloramine", "setting": "pH range 6 to 9, 20 ° C.", "result": 735, "unit": "mg/L-min"}, {"measurement": "CT value for 2.5-log inactivation of Giardia cysts by chloramine", "setting": "pH range 6 to 9, 20 ° C.", "result": 915, "unit": "mg/L-min"}, {"measurement": "CT value for 3-log inactivation of Giardia cysts by chloramine", "setting": "pH range 6 to 9, 20 ° C.", "result": 1100, "unit": "mg/L-min"}, {"measurement": "CT value for 0.5-log inactivation of Giardia cysts by chloramine", "setting": "pH range 6 to 9, 25 ° C.", "result": 125, "unit": "mg/L-min"}, {"measurement": "CT value for 1-log inactivation of Giardia cysts by chloramine", "setting": "pH range 6 to 9, 25 ° C.", "result": 250, "unit": "mg/L-min"}, {"measurement": "CT value for 1.5-log inactivation of Giardia cysts by chloramine", "setting": "pH range 6 to 9, 25 ° C.", "result": 375, "unit": "mg/L-min"}, {"measurement": "CT value for 2-log inactivation of Giardia cysts by chloramine", "setting": "pH range 6 to 9, 25 ° C.", "result": 500, "unit": "mg/L-min"}, {"measurement": "CT value for 2.5-log inactivation of Giardia cysts by chloramine", "setting": "pH range 6 to 9, 25 ° C.", "result": 625, "unit": "mg/L-min"}, {"measurement": "CT value for 3-log inactivation of Giardia cysts by chloramine", "setting": "pH range 6 to 9, 25 ° C.", "result": 750, "unit": "mg/L-min"}, {"measurement": "CT value for 0.5-log inactivation of Giardia cysts by chloramine", "setting": "pH range 6 to 9, ≦1 ° C.", "result": 635, "unit": "mg/L-min"}, {"measurement": "CT value for 1-log inactivation of Giardia cysts by chloramine", "setting": "pH range 6 to 9, ≦1 ° C.", "result": 1270, "unit": "mg/L-min"}, {"measurement": "CT value for 1.5-log inactivation of Giardia cysts by chloramine", "setting": "pH range 6 to 9, ≦1 ° C.", "result": 1900, "unit": "mg/L-min"}, {"measurement": "CT value for 2-log inactivation of Giardia cysts by chloramine", "setting": "pH range 6 to 9, ≦1 ° C.", "result": 2535, "unit": "mg/L-min"}, {"measurement": "CT value for 2.5-log inactivation of Giardia cysts by chloramine", "setting": "pH range 6 to 9, ≦1 ° C.", "result": 3170, "unit": "mg/L-min"}, {"measurement": "CT value for 3-log inactivation of Giardia cysts by chloramine", "setting": "pH range 6 to 9, ≦1 ° C.", "result": 3800, "unit": "mg/L-min"}]}]}
